Values after ≈ are worked out from the molar mass of the structure shown. Read-outs that look alike come from different tables or passages of the source.
Columns and labels:
[1] = system: PBP1b; set-up: method as in earlier work; conditions: value in parentheses; A. baumannii ATCC 19606; cited from earlier work
[2] = target: T1, PBP1a (Pseudomonas aeruginosa, UniProt Q07806); set-up: method as in PMID 18250190; conditions: value in parentheses; P. aeruginosa PAO1; cited from earlier work
T1 construct: Five microliters of total bacterial membrane preparation was mixed with 5 μL of a test compound; endogenous in cells
T1 sequence (Q07806 whole entry): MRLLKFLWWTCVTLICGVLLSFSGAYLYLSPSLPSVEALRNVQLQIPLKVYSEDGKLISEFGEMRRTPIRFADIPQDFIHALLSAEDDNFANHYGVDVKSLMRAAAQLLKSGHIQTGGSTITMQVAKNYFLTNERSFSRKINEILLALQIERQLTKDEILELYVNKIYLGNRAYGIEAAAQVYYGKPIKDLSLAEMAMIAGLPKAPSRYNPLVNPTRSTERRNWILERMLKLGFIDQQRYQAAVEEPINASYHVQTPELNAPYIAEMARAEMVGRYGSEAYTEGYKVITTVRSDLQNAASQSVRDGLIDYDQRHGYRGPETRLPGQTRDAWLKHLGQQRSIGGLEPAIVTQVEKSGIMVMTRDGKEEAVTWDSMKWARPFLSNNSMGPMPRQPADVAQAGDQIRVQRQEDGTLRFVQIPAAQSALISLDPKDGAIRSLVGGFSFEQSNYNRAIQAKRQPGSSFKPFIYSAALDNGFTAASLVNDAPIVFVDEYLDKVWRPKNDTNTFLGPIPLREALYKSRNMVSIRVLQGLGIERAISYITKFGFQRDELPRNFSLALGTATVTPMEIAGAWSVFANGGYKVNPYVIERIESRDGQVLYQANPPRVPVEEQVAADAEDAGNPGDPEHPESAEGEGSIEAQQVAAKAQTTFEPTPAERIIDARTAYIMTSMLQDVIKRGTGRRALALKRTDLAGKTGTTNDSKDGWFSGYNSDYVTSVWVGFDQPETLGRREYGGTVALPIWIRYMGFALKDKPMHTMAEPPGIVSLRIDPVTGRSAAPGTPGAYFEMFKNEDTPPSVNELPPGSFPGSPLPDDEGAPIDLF

[3] = target: PBP3 (Acinetobacter baumannii, UniProt A0ABX6CK25); set-up: method as in earlier work; conditions: read-out: IC50, PBP3; value in parentheses; A. baumannii ATCC 19606; cited from earlier work
Sequence of PBP3 (A0ABX6CK25 entry or part of it): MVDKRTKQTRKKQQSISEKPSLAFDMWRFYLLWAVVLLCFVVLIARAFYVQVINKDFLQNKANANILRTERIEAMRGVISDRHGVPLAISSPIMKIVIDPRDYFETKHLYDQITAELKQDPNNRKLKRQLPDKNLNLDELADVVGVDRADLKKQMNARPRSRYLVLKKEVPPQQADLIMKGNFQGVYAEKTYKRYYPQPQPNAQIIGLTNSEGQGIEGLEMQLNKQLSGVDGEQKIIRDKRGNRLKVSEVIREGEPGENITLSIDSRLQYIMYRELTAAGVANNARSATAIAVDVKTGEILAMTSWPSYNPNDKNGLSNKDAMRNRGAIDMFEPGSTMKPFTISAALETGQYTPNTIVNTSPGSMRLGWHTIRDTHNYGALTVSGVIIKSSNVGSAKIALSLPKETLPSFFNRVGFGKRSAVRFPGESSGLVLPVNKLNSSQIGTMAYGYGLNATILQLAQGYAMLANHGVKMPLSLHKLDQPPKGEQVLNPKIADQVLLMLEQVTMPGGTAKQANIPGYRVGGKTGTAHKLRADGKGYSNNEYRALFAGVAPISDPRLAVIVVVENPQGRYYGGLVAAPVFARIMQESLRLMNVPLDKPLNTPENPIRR

[4] = target: PBP2 (Klebsiella pneumoniae, UniProt A6T696); set-up: method as in PMID 29712652; conditions: read-out: IC50, PBP2; value in parentheses; K. pneumoniae ATCC 43816; cited from earlier work
Sequence of PBP2 (A6T696 entry or part of it): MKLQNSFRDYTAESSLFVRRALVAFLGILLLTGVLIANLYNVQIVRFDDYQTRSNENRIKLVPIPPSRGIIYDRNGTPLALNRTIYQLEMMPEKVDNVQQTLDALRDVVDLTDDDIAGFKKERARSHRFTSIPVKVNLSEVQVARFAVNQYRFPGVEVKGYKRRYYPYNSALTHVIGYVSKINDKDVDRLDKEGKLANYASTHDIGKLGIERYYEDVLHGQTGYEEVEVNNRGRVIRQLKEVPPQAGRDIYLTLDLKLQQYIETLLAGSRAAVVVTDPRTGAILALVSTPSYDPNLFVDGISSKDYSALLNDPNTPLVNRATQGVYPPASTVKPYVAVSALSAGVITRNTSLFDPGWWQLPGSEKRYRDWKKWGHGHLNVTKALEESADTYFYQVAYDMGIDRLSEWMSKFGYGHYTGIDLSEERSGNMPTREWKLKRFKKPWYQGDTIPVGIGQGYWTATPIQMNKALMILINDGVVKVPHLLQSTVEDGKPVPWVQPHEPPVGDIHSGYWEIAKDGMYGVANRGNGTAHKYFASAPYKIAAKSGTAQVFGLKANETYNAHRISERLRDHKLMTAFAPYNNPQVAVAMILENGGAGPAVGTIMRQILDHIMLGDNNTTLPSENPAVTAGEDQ

[5] = system: Enterobacterales; experiment: Broth microdilution MIC (CLSI), Enterobacterales; assay type: cell-based
Text: (§1) Bacterial isolates were subjected to broth microdilution susceptibility testing, performed according to Clinical and Laboratory Standards Institute (CLSI) methods ([46]), using panels prepared in-house. Meropenem was purchased from Sandoz, and all other antibiotics were from Sigma-Aldrich. Xeruborbactam was synthesized at Qpex Biopharma, San Diego, CA. Avibactam was purchased from eNovation Chemicals LLC, Bridgewater, NJ, USA; zidebactam was from MedKoo Biosciences, Inc., Morrisville, NC, and nacubactam was from Advanced ChemBlocks, Hayward, CA. Durlobactam was synthesized at Acme Bioscience, Palo Alto, CA, USA.

[6] = system: Enterobacter cloacae species complex; experiment: Broth microdilution MIC (CLSI), Enterobacter cloacae; assay type: cell-based; conditions: for MIC: Enterobacter cloacae
Text: as §1

[7] = system: Serratia marcescens; experiment: Broth microdilution MIC (CLSI), Serratia marcescens; assay type: cell-based; conditions: 10 isolates
Text: as §1

[8] = system: K. pneumoniae strain KPM1026a
Description: Beta-lactamase-negative strains of E. coli (strain ECM5497), A. baumannii (strain AB1007), and K. pneumoniae (strain KPM1026a) were used in resistance development studies. […] Colonies were incubated for 24 h at 37°C before the frequency of resistance emergence was calculated as the ratio of the number of CFU grown on the xeruborbactam-containing plate over the number of CFU recorded for xeruborbactam-free plates. Single colonies from xeruborbactam-containing plates were grown twice on a nonselective medium before their antimicrobial-resistance levels were assessed. For K. pneumoniae KPM1026a, several independent cultures were used in resistance studies.

[9] = system: Klebsiella oxytoca; experiment: Broth microdilution MIC (CLSI), Klebsiella oxytoca; assay type: cell-based
Text: as §1

[10] = system: strain KPM1026a of K. pneumoniae; experiment: Minimal bactericidal concentration (MBC), K. pneumoniae; assay type: cell-based; conditions: Klebsiella pneumoniae
[11] = system: P. aeruginosa strain PAM1154; experiment: Fluorescence microscopy, cellular morphology; assay type: cell-based, Pseudomonas aeruginosa; conditions: treated at 1× or 2× MIC
Description: Single colonies of K. pneumoniae strain KPM1026a, A. baumannii strain ATCC 17978, and P. aeruginosa strain PAM1154 were picked from LB agar plates, inoculated in cation-adjusted Mueller-Hinton broth (CA-MHB), and incubated overnight at 30°C with rolling. Overnight cultures were diluted into fresh CA-MHB and incubated at 30°C, with rolling, until they reached an OD600 of ≈0.12 to 0.15 (equivalent to ~2 × 10^8 CFU/mL). Samples were then treated with compounds and incubated at 30°C, with rolling. After 1 or 2 h of treatment, cells were collected and stained with a dye mix containing FM4-64 (1 μg/mL), DAPI (4′,6-diamidino-2-phenylindole) (2 μg/mL), and SYTOX green (0.5 μM) (Molecular Probes, Invitrogen, or Thermo Fisher Scientific). Cells were transferred onto an agarose pad containing 1.2% agarose and 20% LB medium for microscopy. Microscopy was performed as previously described ([34]).

[12] = Enterobacterales, 1,028 isolates
[13] = Enterobacter cloacae species complex, 45 isolates
[14] = Klebsiella oxytoca, 23 isolates

In the case of `C[C@@H](O)[C@H]1C(=O)N2C(C(=O)O)=C(S[C@@H]3CN[C@H](C(=O)N(C)C)C3)[C@H](C)[C@H]12` [Meropenem], the IC50 [1] is given as 500 nM, the IC50 [2] is given as 500 nM and the IC50 [3] is given as 330 nM. The IC50 [4] was less than 20 nM.

Work on `O=C(O)c1c(F)ccc2c1OB(O)[C@@H]1C[C@H]21` [Xeruborbactam] yielded an MIC50 [5, 12] of 16 µg/mL (≈ 72.1 µM), an MIC90 [5, 12] of 32 µg/mL (≈ 144 µM) and an MIC range [5, 12] of 2 to 64 µg/mL. The MIC ([5]; read-out: modal MIC) was 16 µg/mL (≈ 72.1 µM), the MIC ([5]; wild-type strains of Escherichia coli or Klebsiella pneumoniae, read-out: antibacterial potency (MIC)) was 8 to 16 µg/mL (≈ 36 to 72.1 µM) and the MIC50 [6, 13] was 16 µg/mL (≈ 72.1 µM). For the same compound, the MIC90 [6, 13] was 32 µg/mL (≈ 144 µM), the MIC range [6, 13] was 4 to 64 µg/mL and the MIC ([6]; Enterobacter cloacae species complex isolates, read-out: highest MIC observed) was 64 µg/mL (≈ 288 µM). The MIC ([6]; clinical isolate ECL1057, OmpK35 FN, OmpK36 NF, read-out: MIC) was 64 µg/mL (≈ 288 µM), the MIC ([6]; clinical isolate ECL1079, OmpK35 NF, OmpK36 NF, read-out: MIC) was 64 µg/mL (≈ 288 µM) and the MIC ([6]; clinical isolate ECL1126, OmpK35 FN, OmpK36 FN, read-out: MIC) was 16 µg/mL (≈ 72.1 µM). For the same compound, the MIC ([6]; clinical isolate ECL1131, OmpK35 NF, OmpK36 FN, read-out: MIC) was 16 µg/mL (≈ 72.1 µM), the MIC50 [7] was 32 µg/mL (≈ 144 µM) and the MIC90 [7] was 32 µg/mL (≈ 144 µM). The MIC range [7] was 16 to 64 µg/mL, the “frequency of resistance (FOR)” value ([8]; at 2× MIC) was 2 × 10^−8 and the “frequency of resistance (FOR)” value ([8]; at 4× MIC) was < 3 × 10^−9. The MIC ([9]; Klebsiella oxytoca isolates, read-out: highest MIC observed) was 32 µg/mL (≈ 144 µM), the MIC50 [9, 14] was 8 µg/mL (≈ 36 µM) and the MIC90 [9, 14] was 16 µg/mL (≈ 72.1 µM). The MIC range [9, 14] was 8 to 32 µg/mL, the MBC [10] was 16 µg/mL (≈ 72.1 µM) and the cellular morphology [11] was “filamentation and bulge formation at midcell and eventual cell lysis from the midpoint”.
